Measured values taken from PubChem BioAssay AID1963861 (Molecular Pharmacology Branch, DTP, NCI, 2024).

Test system: 885724-159-R-J1-PDC KRAS PDC multicell spheroid viability
Test: Anticancer human tumor 885724-159-R-J1-PDC patient-derived pancreatic adenocarcinoma cell line growth inhibition [KRAS2]
Details: for IC50: curve of first compound; for viability, T/C: stronger effect = lower value
Method in brief: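 KRAS-mutant tumor cells were grown as spheroids with HUVEC endothelial cells and human MSCs as stroma. Targeted agents were tested alone and with KRAS pathway inhibitors. Doses started at or near clinical Cmax, or 10 microM, descending half-log.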

[1] = second compound 0.1 µM, first compound 0.0316 µM
[2] = second compound 0.1 µM, first compound 0.1 µM
[3] = second compound 0.316 µM, first compound 0.0316 µM
[4] = second compound 0.316 µM, first compound 0.1 µM
[5] = second compound 1 µM, first compound 0.0316 µM
[6] = second compound 1 µM, first compound 0.1 µM
[7] = second compound 3.16 µM, first compound 0.0316 µM
[8] = second compound 3.16 µM, first compound 0.1 µM
[9] = second compound 10 µM, first compound 0.0316 µM
[10] = second compound 10 µM, first compound 0.1 µM
[11] = second compound 0.1 µM, first compound 0.316 µM
[12] = second compound 0.1 µM, first compound 1 µM
[13] = second compound 0.1 µM, first compound 3.16 µM
[14] = second compound 0.1 µM, first compound 10 µM
[15] = second compound 0.316 µM, first compound 0.316 µM
[16] = second compound 0.316 µM, first compound 1 µM
[17] = second compound 0.316 µM, first compound 3.16 µM
[18] = second compound 0.316 µM, first compound 10 µM
[19] = second compound 1 µM, first compound 0.316 µM
[20] = second compound 1 µM, first compound 1 µM
[21] = second compound 1 µM, first compound 3.16 µM
[22] = second compound 1 µM, first compound 10 µM
[23] = second compound 3.16 µM, first compound 0.316 µM
[24] = second compound 3.16 µM, first compound 1 µM
[25] = second compound 3.16 µM, first compound 3.16 µM
[26] = second compound 3.16 µM, first compound 10 µM
[27] = second compound 10 µM, first compound 0.316 µM
[28] = second compound 10 µM, first compound 1 µM
[29] = second compound 10 µM, first compound 3.16 µM
[30] = second compound 10 µM, first compound 10 µM
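Further: spheroids exposed to agents for 7 days before readout.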

SMILES	IC50 (second compound 0.1 µM)	IC50 (second compound 0.316 µM)	IC50 (second compound 1 µM)	IC50 (second compound 3.16 µM)	IC50 (second compound 10 µM)	viability, T/C [1]	viability, T/C [2]	viability, T/C [3]	viability, T/C [4]	viability, T/C [5]	viability, T/C [6]	viability, T/C [7]	viability, T/C [8]	viability, T/C [9]	viability, T/C [10]	viability, T/C [11]	viability, T/C [12]	viability, T/C [13]	viability, T/C [14]	viability, T/C [15]	further results
CN(C)C/C=C/C(=O)Nc1cc2c(Nc3ccc(F)c(Cl)c3)ncnc2cc1O[C@H]1CCOC1 + CNCc1ccccc1-c1csc(C(C)Nc2nc(C)nc3cc(OC)c(OC)cc23)c1	> 100 nM	> 100 nM	> 100 nM	2.35 nM	< 0.316 nM	77.9%	66.7%	74%	63.4%	70.3%	67.5%	71.9%	38%	0.22%	0.25%	–	–	–	–	–	viability, T/C (second compound 0.1 µM, first compound 0.000316 µM): 104%; viability, T/C (second compound 0.1 µM, first compound 0.001 µM): 95.4%; viability, T/C (second compound 0.1 µM, first compound 0.00316 µM): 93.2%; viability, T/C (second compound 0.1 µM, first compound 0.01 µM): 89.8%; viability, T/C (second compound 0.316 µM, first compound 0.000316 µM): 108%; viability, T/C (second compound 0.316 µM, first compound 0.001 µM): 107%; viability, T/C (second compound 0.316 µM, first compound 0.00316 µM): 86.6%; viability, T/C (second compound 0.316 µM, first compound 0.01 µM): 81.7%; viability, T/C (second compound 1 µM, first compound 0.000316 µM): 109%; viability, T/C (second compound 1 µM, first compound 0.001 µM): 104%; viability, T/C (second compound 1 µM, first compound 0.00316 µM): 94.6%; viability, T/C (second compound 1 µM, first compound 0.01 µM): 83.1%; viability, T/C (second compound 3.16 µM, first compound 0.000316 µM): 105%; viability, T/C (second compound 3.16 µM, first compound 0.001 µM): 123%; viability, T/C (second compound 3.16 µM, first compound 0.00316 µM): 0.97%; viability, T/C (second compound 3.16 µM, first compound 0.01 µM): 0.27%; viability, T/C (second compound 10 µM, first compound 0.000316 µM): 0.22%; viability, T/C (second compound 10 µM, first compound 0.001 µM): 0.26%; viability, T/C (second compound 10 µM, first compound 0.00316 µM): 0.18%; viability, T/C (second compound 10 µM, first compound 0.01 µM): 0.15%
COC(=O)c1ccc2c(C(=Nc3ccc(N(C)C(=O)CN4CCN(C)CC4)cc3)c3ccccc3)c(O)[nH]c2c1 + CNCc1ccccc1-c1csc(C(C)Nc2nc(C)nc3cc(OC)c(OC)cc23)c1	2550 nM	1860 nM	2170 nM	< 31.6 nM	< 31.6 nM	111%	107%	108%	110%	106%	115%	1.59%	4.08%	0.26%	0.2%	117%	110%	36.2%	1.52%	107%	viability, T/C [16]: 102%; viability, T/C [17]: 6.06%; viability, T/C [18]: 0.58%; viability, T/C [19]: 107%; viability, T/C [20]: 96.7%; viability, T/C [21]: 27.2%; viability, T/C [22]: 1.19%; viability, T/C [23]: 1.18%; viability, T/C [24]: 0.58%; viability, T/C [25]: 1.26%; viability, T/C [26]: 0.34%; viability, T/C [27]: 0.15%; viability, T/C [28]: 0.33%; viability, T/C [29]: 0.38%; viability, T/C [30]: 0.48%
O=C(c1cc(Cc2n[nH]c(=O)c3ccccc23)ccc1F)N1CCN(C(=O)C2CC2)CC1 + CNCc1ccccc1-c1csc(C(C)Nc2nc(C)nc3cc(OC)c(OC)cc23)c1	> 10000 nM	> 10000 nM	> 10000 nM	< 31.6 nM	< 31.6 nM	110%	112%	107%	107%	105%	112%	1.34%	1.56%	0.23%	0.26%	98.4%	101%	96.2%	84.7%	103%	viability, T/C [16]: 96.4%; viability, T/C [17]: 94.6%; viability, T/C [18]: 81.7%; viability, T/C [19]: 104%; viability, T/C [20]: 95.7%; viability, T/C [21]: 91.9%; viability, T/C [22]: 81.8%; viability, T/C [23]: 0.78%; viability, T/C [24]: 0.88%; viability, T/C [25]: 1%; viability, T/C [26]: 1.09%; viability, T/C [27]: 0.21%; viability, T/C [28]: 0.28%; viability, T/C [29]: 0.28%; viability, T/C [30]: 0.68%
